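Cultured in 96-well plates, cells were exposed to test compound for 48 hours across five concentrations. GI50 = concentration required for 50% inhibition of growth.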 Active and inactive are the calls of the source. Cut-off read from the data, not from the text of the source: active = GI50 up to about 1.1 µM and inactive = higher.
What was measured:
Assay in all cases: NCI tumour cell line growth inhibition, 48 h
UO-31 = system: UO-31
KM12 = system: KM12
786-0 = system: 786-0
MDA-N = system: MDA-N
U-251 = system: U-251
OVCAR-3 = system: OVCAR-3
NCI-H226 = system: NCI-H226
SR = system: SR
SK-MEL-5 = system: SK-MEL-5
M14 = system: M14
OVCAR-5 = system: OVCAR-5
ACHN = system: ACHN
TK-10 = system: TK-10
SK-MEL-28 = system: SK-MEL-28
HOP-62 = system: HOP-62
OVCAR-8 = system: OVCAR-8
SK-MEL-2 = system: SK-MEL-2
RPMI-8226 = system: RPMI-8226
DU-145 = system: DU-145
HL-60 = system: HL-60

In the case of `CN(/N=C/C=N/N(C)C1=NCCCN1)C1=NCCCN1`, the GI50 (UO-31) is reported as > 100 µM (inactive), the GI50 (KM12) is reported as > 100 µM (inactive) and the GI50 (786-0) is reported as > 100 µM (inactive). The GI50 (MDA-N) was > 100 µM (inactive), the GI50 (U-251) was > 100 µM (inactive) and the GI50 (OVCAR-3) was > 100 µM (inactive). For the same compound, the GI50 (NCI-H226) was > 100 µM (inactive), the GI50 (SR) was > 100 µM (inactive) and the GI50 (SK-MEL-5) was > 100 µM (inactive). For the same compound, the GI50 (M14) was > 100 µM (inactive), the GI50 (OVCAR-5) was > 100 µM (inactive) and the GI50 (ACHN) was > 100 µM (inactive). For the same compound, the GI50 (TK-10) was > 100 µM (inactive), the GI50 (SK-MEL-28) was > 100 µM (inactive) and the GI50 (HOP-62) was > 100 µM (inactive). The GI50 (OVCAR-8) was > 100 µM (inactive).

For `CN(C)P(=O)(Oc1occc1C(O)Cc1ccccc1)N(C)C` (configuration not stated), the GI50 (UO-31) was > 100 µM (inactive), the GI50 (KM12) was > 100 µM (inactive) and the GI50 (786-0) was > 100 µM (inactive). For the same compound, the GI50 (MDA-N) was > 100 µM (inactive), the GI50 (U-251) was > 100 µM (inactive) and the GI50 (OVCAR-3) was > 100 µM (inactive). For the same compound, the GI50 (NCI-H226) was > 100 µM (inactive), the GI50 (SK-MEL-5) was > 100 µM (inactive) and the GI50 (SK-MEL-2) was > 100 µM (inactive). For the same compound, the GI50 (RPMI-8226) was > 100 µM (inactive), the GI50 (M14) was > 100 µM (inactive) and the GI50 (OVCAR-5) was > 100 µM (inactive). The GI50 (ACHN) was > 100 µM (inactive), the GI50 (TK-10) was > 100 µM (inactive) and the GI50 (SK-MEL-28) was > 100 µM (inactive). For the same compound, the GI50 (HOP-62) was > 100 µM (inactive) and the GI50 (OVCAR-8) was > 100 µM (inactive).

In the case of `O=C(O)/C(=C/c1ccccc1)c1ccccc1`, the GI50 (UO-31) is reported as > 100 µM (inactive), the GI50 (DU-145) is reported as > 100 µM (inactive) and the GI50 (KM12) is reported as > 100 µM (inactive). The GI50 (786-0) was > 100 µM (inactive), the GI50 (MDA-N) was > 100 µM (inactive) and the GI50 (U-251) was > 100 µM (inactive). The GI50 (OVCAR-3) was > 100 µM (inactive), the GI50 (HL-60) was > 100 µM (inactive) and the GI50 (SK-MEL-5) was > 100 µM (inactive). The GI50 (SK-MEL-2) was > 100 µM (inactive), the GI50 (RPMI-8226) was > 100 µM (inactive) and the GI50 (M14) was > 100 µM (inactive). For the same compound, the GI50 (OVCAR-5) was > 100 µM (inactive), the GI50 (ACHN) was > 100 µM (inactive) and the GI50 (TK-10) was > 100 µM (inactive). The GI50 (SK-MEL-28) was > 100 µM (inactive), the GI50 (HOP-62) was > 100 µM (inactive) and the GI50 (OVCAR-8) was > 100 µM (inactive).

`O=[N+]([O-])c1ccc(NN=C2CN3CCN(C2)c2ccccc23)c([N+](=O)[O-])c1` was tested, and the GI50 (UO-31) was > 100 µM (inactive), the GI50 (DU-145) was > 100 µM (inactive) and the GI50 (KM12) was > 100 µM (inactive). The GI50 (786-0) was > 100 µM (inactive), the GI50 (MDA-N) was > 100 µM (inactive) and the GI50 (U-251) was > 100 µM (inactive). For the same compound, the GI50 (OVCAR-3) was > 100 µM (inactive), the GI50 (SR) was > 100 µM (inactive) and the GI50 (SK-MEL-5) was > 100 µM (inactive). The GI50 (M14) was > 100 µM (inactive), the GI50 (OVCAR-5) was > 100 µM (inactive) and the GI50 (ACHN) was > 100 µM (inactive). The GI50 (TK-10) was > 100 µM (inactive), the GI50 (SK-MEL-28) was > 100 µM (inactive) and the GI50 (HOP-62) was > 100 µM (inactive). The GI50 (OVCAR-8) was > 100 µM (inactive).

For `O=C1/C(=C/c2cccc3ccccc23)CCc2ccc([N+](=O)[O-])cc21`, the GI50 (UO-31) was 33.7 µM (inactive), the GI50 (DU-145) was 51.6 µM (inactive) and the GI50 (KM12) was 6.32 µM (inactive). The GI50 (786-0) was 23.3 µM (inactive), the GI50 (MDA-N) was 8.81 µM (inactive) and the GI50 (U-251) was 14.1 µM (inactive). For the same compound, the GI50 (OVCAR-3) was 3.22 µM (inactive), the GI50 (NCI-H226) was 27.6 µM (inactive) and the GI50 (SR) was > 10 µM (inactive). For the same compound, the GI50 (HL-60) was 8.83 µM (inactive), the GI50 (RPMI-8226) was 11.8 µM (inactive) and the GI50 (M14) was 24.4 µM (inactive). The GI50 (OVCAR-5) was > 100 µM (inactive), the GI50 (ACHN) was 26.8 µM (inactive) and the GI50 (TK-10) was 27.2 µM (inactive). The GI50 (SK-MEL-28) was 16.6 µM (inactive), the GI50 (HOP-62) was 28.2 µM (inactive) and the GI50 (OVCAR-8) was 37.3 µM (inactive).

In the case of `CCOC(=O)C1=C(C)N(CC(C)C)C2(O)C(OC)CC(=O)C3C(=O)N(c4ccccc4)C(=O)C132` (configuration not stated), the GI50 (UO-31) is reported as 20 µM (inactive), the GI50 (DU-145) is reported as 52 µM (inactive) and the GI50 (KM12) is reported as 25.9 µM (inactive). For the same compound, the GI50 (786-0) was 66.4 µM (inactive), the GI50 (U-251) was 45.4 µM (inactive) and the GI50 (OVCAR-3) was 43.3 µM (inactive). The GI50 (NCI-H226) was 26.1 µM (inactive), the GI50 (SR) was 21.4 µM (inactive) and the GI50 (HL-60) was 25 µM (inactive). For the same compound, the GI50 (SK-MEL-5) was 20.1 µM (inactive), the GI50 (SK-MEL-2) was 20.4 µM (inactive) and the GI50 (RPMI-8226) was 33 µM (inactive). The GI50 (M14) was 38.3 µM (inactive), the GI50 (OVCAR-5) was > 100 µM (inactive) and the GI50 (ACHN) was 24.9 µM (inactive). The GI50 (TK-10) was 77.1 µM (inactive), the GI50 (SK-MEL-28) was 23.8 µM (inactive) and the GI50 (HOP-62) was 68.7 µM (inactive). For the same compound, the GI50 (OVCAR-8) was 26.1 µM (inactive).

For `O=C1c2ccccc2C(=O)c2sc(Nc3ccc(Cl)c(Cl)c3)nc21`, the GI50 (UO-31) was 2.12 µM (inactive), the GI50 (DU-145) was 18.8 µM (inactive) and the GI50 (KM12) was 7.83 µM (inactive). The GI50 (786-0) was 1.82 µM (inactive), the GI50 (U-251) was 2.43 µM (inactive) and the GI50 (OVCAR-3) was 2.49 µM (inactive). The GI50 (NCI-H226) was 1.48 µM (inactive), the GI50 (SR) was 2.52 µM (inactive) and the GI50 (HL-60) was 0.256 µM (active). The GI50 (SK-MEL-5) was 2.32 µM (inactive), the GI50 (SK-MEL-2) was 8.26 µM (inactive) and the GI50 (RPMI-8226) was 2.02 µM (inactive). For the same compound, the GI50 (M14) was 3.22 µM (inactive), the GI50 (OVCAR-5) was 2.9 µM (inactive) and the GI50 (ACHN) was 1.75 µM (inactive). For the same compound, the GI50 (TK-10) was 11.1 µM (inactive), the GI50 (SK-MEL-28) was 7.35 µM (inactive) and the GI50 (HOP-62) was 7.38 µM (inactive). The GI50 (OVCAR-8) was 3.7 µM (inactive).

For `O=P(O)(O)C(N=C(Nc1ccccc1)Nc1ccccc1)P(=O)(O)O`, the GI50 (UO-31) was > 100 µM (inactive), the GI50 (DU-145) was > 100 µM (inactive) and the GI50 (KM12) was > 100 µM (inactive). The GI50 (786-0) was > 100 µM (inactive), the GI50 (MDA-N) was > 100 µM (inactive) and the GI50 (OVCAR-3) was > 100 µM (inactive). The GI50 (NCI-H226) was > 100 µM (inactive), the GI50 (SK-MEL-5) was > 100 µM (inactive) and the GI50 (M14) was > 100 µM (inactive). The GI50 (OVCAR-5) was > 100 µM (inactive), the GI50 (ACHN) was > 100 µM (inactive) and the GI50 (TK-10) was > 100 µM (inactive). For the same compound, the GI50 (HOP-62) was > 100 µM (inactive) and the GI50 (OVCAR-8) was > 100 µM (inactive).

— ChEMBL document CHEMBL1201862, “PubChem BioAssay data set” (2004)
